Measurements taken from ChEMBL document CHEMBL5528075, “Unleashing the Potential of Camptothecin: Exploring Innovative Strategies for Structural Modification and Therapeutic Advancements” (J Med Chem, 2024).
In brackets after ≈: the same amount, converted by molar mass.

Legend:
[1] = system: A549; test: Cytotoxicity against human A549 cells assessed as reduction in cell growth measured after 72 hrs by MTT assay; type: functional, cell-based; details: A549, 72 h
[2] = system: HeLa; test: Cytotoxicity against human HeLa cells assessed as reduction in cell growth measured after 72 hrs by MTT assay; type: functional, cell-based
[3] = system: HCT-116; test: Cytotoxicity against human HCT-116 cells assessed as reduction in cell growth measured after 72 hrs by MTT assay; type: functional, cell-based; details: HCT-116, 72 h
[4] = system: L1210; test: Cytotoxicity against mouse L1210 cells assessed as reduction in cell growth measured after 72 hrs by MTT assay; type: functional, cell-based; details: L1210, 72 h
[5] = Volume of distribution at steady state in mouse at 5 mg/kg, iv; type: ADME, organism-based; details: in vivo, read-out: Vdss
[6] = system: HCT-116; test: Cytotoxicity against human HCT-116 cells assessed as reduction in cell viability measured after 48 hrs by MTT assay; type: functional, cell-based; details: HCT-116, 48 h
[7] = system: K562; test: Cytotoxicity against human K562 cells assessed as reduction in cell growth incubated for 48 hrs by MTT assay; type: functional, cell-based; details: K562, 48 h
[8] = system: A549; test: cells; details: Homo sapiens, A549, 48 h
Description: Cytotoxicity against human A549 cells assessed as reduction in cell viability measured after 48 hrs by MTT assay

[9] = Toxicity in iv dosed mouse assessed as lethal dose; type: organism-based; details: in vivo
[10] = system: K562; test: Growth inhibition of human K562 cells incubated for 72 hrs by MTT assay; type: functional
[11] = Primary half life in mouse at 8 mg/kg, iv; type: ADME, organism-based; details: in vivo, read-out: alphat1/2
[12] = Volume of distribution at steady state in mouse at 8 mg/kg, iv; type: ADME, organism-based; details: in vivo, read-out: Vdss
[13] = Terminal half life in mouse at 8 mg/kg, iv; type: ADME, organism-based; details: in vivo, read-out: beta t1/2
[14] = system: MCF7; test: Growth inhibition of human MCF7 cells incubated for 72 hrs by MTT assay; type: functional
[15] = Toxicity in ip dosed mouse assessed as lethal dose; type: organism-based; details: in vivo
[16] = system: HeLa; test: Cytotoxicity against human HeLa cells assessed as reduction in cell viability measured for 48 hrs by MTT assay; type: functional, cell-based
[17] = Toxicity in po dosed mouse assessed as lethal dose; type: organism-based; details: in vivo
[18] = Antiproliferative activity against human HCT116-G7 cells assessed as reduction in cell viability measured after 72 hrs by MTT assay; type: functional, cell-based; details: HCT116-G7, 72 h
[19] = system: HCT-116; test: Growth inhibition of human HCT-116 cells incubated for 72 hrs by MTT assay; type: functional
[20] = Antiproliferative activity against human HCT116-SN6 cells assessed as reduction in cell viability measured after 72 hrs by MTT assay; type: functional, cell-based; details: HCT116-SN6, 72 h
[21] = system: HCT-116; test: Antiproliferative activity against human HCT-116 cells assessed as reduction in cell viability measured after 72 hrs by MTT assay; type: functional, cell-based; details: HCT-116, 72 h
[22] = system: HCT-116; test: cells; details: Homo sapiens, HCT-116, 72 h
Description: Cytotoxicity against human HCT-116 cells assessed as reduction in cell growth incubated for 72 hrs by MTT assay

[23] = system: L1210; test: Cytotoxicity against mouse L1210 cells assessed as reduction in cell viability measured for 24 hrs by MTT assay; type: functional, cell-based; details: L1210, 24 h
[24] = system: HCT-116; test: Antitumor activity against human HCT-116 cells xenografted in mouse assessed as tumor growth inhibition at 5 mg/kg administered once for every 2 days for 2 weeks relative to control; type: functional; parameters: scale not given: the % may be the effect or the level left; details: time 2 day
[25] = system: HeLa; test: cells; details: Homo sapiens, 72 h
Description: Cytotoxicity against human HeLa cells assessed as reduction in cell growth incubated for 72 hrs by MTT assay

[26] = system: A549; test: Growth inhibition of human A549 cells incubated for 72 hrs by MTT assay; type: functional
[27] = system: A549; test: cells; details: Homo sapiens, A549, 72 h
Description: Cytotoxicity against human A549 cells assessed as reduction in cell growth incubated for 72 hrs by MTT assay

[28] = Clearance in mouse at 8 mg/kg, iv; type: ADME, organism-based; details: in vivo
[29] = AUC in mouse at 8 mg/kg, iv; type: ADME, organism-based; details: in vivo
[30] = system: HepG2; test: Cytotoxicity against human HepG2 cells assessed as cell growth inhibition measured after 48 hrs by MTT assay; type: functional, cell-based; details: HepG2, 48 h
[31] = system: A549; test: Antiproliferative activity against human A549 cells assessed as reduction in cell viability measured after 72 hrs by MTT assay; type: functional, cell-based; details: A549, 72 h
[32] = Aqueous solubility of compound at pH 7.4; type: physicochemical
[33] = system: HepG2; test: Cytotoxicity against human HepG2 cells assessed as reduction in cell growth incubated for 72 hrs by MTT assay; type: functional, cell-based; details: HepG2, 72 h
[34] = system: L1210; test: Cytotoxicity against mouse L1210 cells assessed as reduction in cell viability measured for 24 hrs by SRB assay; type: functional, cell-based; details: L1210, 24 h
[35] = system: HeLa; test: cells; details: Homo sapiens, 24 h
Description: Cytotoxicity against human HeLa cells assessed as reduction in cell viability measured for 24 hrs by SRB assay

[36] = system: HepG2; test: Antiproliferative activity against human HepG2 cells assessed as reduction in cell viability measured for 48 hrs by CCK-8 assay; type: functional, cell-based; details: HepG2, 48 h
[37] = system: K562; test: Antiproliferative activity against human K562 cells assessed as reduction in cell viability measured for 48 hrs by CCK-8 assay; type: functional, cell-based; details: K562, 48 h
[38] = system: HeLa; test: Antiproliferative activity against human HeLa cells assessed as reduction in cell viability measured for 48 hrs by CCK-8 assay; type: functional, cell-based
[39] = system: L1210; test: Antiproliferative activity against mouse L1210 cells assessed as inhibition of cell growth incubated for 24 hrs by MTT assay; type: functional, cell-based; details: L1210, 24 h

`CCc1c2c(nc3ccc(O)cc13)-c1cc3c(c(=O)n1C2)COC(=O)[C@]3(O)CC` [7-ETHYL-10-HYDROXYCAMPTOTHECIN] gave an IC50 [1] of 1.62 nM, an IC50 [2] of 22 nM and an IC50 [3] of 0.55 nM. The IC50 [4] was 8.9 nM.

`CC[C@@]1(O)C(=O)OCc2c1cc1n(c2=O)Cc2c-1nc1ccc(O)cc1c2[Si](C)(C)C(C)(C)C` [AR-67] gave a Vd [5] of 0.73 L/kg.

Work on `CC[C@@]1(O)C(=O)OCc2c1cc1n(c2=O)Cc2cc3ccccc3nc2-1` [CAMPTOTHECIN] yielded an IC50 [6] of 2.01 nM, an IC50 [7] of 2 nM and an IC50 [8] of 0.32 nM. For the same compound, the LD50 [9] was 38 mg/kg, the GI50 [10] was 54.3 ng/mL (≈ 0.156 µM) and the half-life [11] was 0.35 h. The Vd [12] was 10.8 L/kg, the half-life [13] was 4.6 h and the GI50 [14] was 1.98 ng/mL (≈ 0.00568 µM). For the same compound, the LD50 [15] was 38 mg/kg, the IC50 [16] was 8.9 nM and the LD50 [17] was 50 mg/kg. It also gave an EC50 [18] of 20.3 nM, a GI50 [19] of 3.86 ng/mL (≈ 0.0111 µM) and an EC50 [20] of 7.63 nM. It also gave an EC50 [21] of 3.15 nM, an IC50 [22] of 2.01 ng/mL (≈ 0.00577 µM) and an IC50 [23] of 14 nM. It also gave an Activity [24] of 37.5%, an IC50 [25] of 8.9 ng/mL (≈ 0.0255 µM) and a GI50 [26] of 5.69 ng/mL (≈ 0.0163 µM). For the same compound, the IC50 [27] was 0.32 ng/mL (≈ 0.000919 µM), the clearance [28] was 38 mL/min/kg and the AUC [29] was 212 µg/mL. It also gave an IC50 [30] of 7.25 nM, an EC50 [31] of 4.17 nM and a solubility [32] of 1.83 µM (≈ 0.637 µg/mL). It also gave an IC50 [33] of 7.25 ng/mL (≈ 0.0208 µM).

`CC[C@@]1(O)C(=O)OCc2c1cc1n(c2=O)Cc2c-1nc1cc(F)c(C)c3c1c2[C@@H](N)CC3.CS(=O)(=O)O.O.O` [EXATECAN MESYLATE] showed a GI50 [10] of 10.4 ng/mL, a GI50 [14] of 0.322 ng/mL and a GI50 [19] of 0.347 ng/mL. For the same compound, the GI50 [26] was 0.914 ng/mL.

With `CCc1c2c(nc3ccc(OC(=O)N4CCC(N5CCCCC5)CC4)cc13)-c1cc3c(c(=O)n1C2)COC(=O)[C@]3(O)CC` [IRINOTECAN] the IC50 [34] was 1200 nM and the IC50 [35] was 122 nM.

For `CC[C@@]1(O)C(=O)OCc2c1cc1n(c2=O)Cc2cc3c(CN(C)C)c(O)ccc3nc2-1` [TOPOTECAN], the IC50 [36] was 60 nM, the IC50 [37] was 500 nM and the IC50 [38] was 376 nM. It also gave an IC50 [39] of 56 nM.
